In patent publication US20100234381A1, “BIOMARKERS AND METHODS FOR DETERMINING SENSITIVITY TO VASCULAR ENDOTHELIAL GROWTH FACTOR RECEPTOR-2 MODULATORS” (Bristol-Myers Squibb Company, priority 2007, published 2010):

How the values were obtained:
[1] = system: FGF2-stimulated cancer cell lines; assay: FGF2-stimulated tumor cell proliferation, panel of cancer cell lines; type: cell-based; conditions: panel of 16 cell lines; FGF2 2.5 ng/ml; read-out: IC50, FGF2-induced tumor cell proliferation in vitro
Description: […], GEO, L2987, 786-0, A549, A498, Du145, PANC-1, ACHN, HT1197, CALU6, SKOV3, 769-[…], HCT166 and UMUC3. […] Gene expression profiling was performed on RNA samples from tumor cell lines using AFFYMETRIX® GeneChip System.

[2] = system: A2780 ovarian cancer cells; assay: FGF2-induced proliferation of A2780 ovarian cancer cells (modified MTS assay); type: cell-based; conditions: A2780 ovarian cancer cells
Description: (§1) Cell proliferation was determined by a modified MTS assay with […] 96® Aqueous One Solution Reagent (Promega, Madison, Wis.). A2780 ovarian cancer cells, MIAPAC-2 pancreatic cancer cells, or GEO colon cancer cells were seeded on 96-well flat-bottomed tissue culture plates (Becton Dickinson, San Jose, Calif.) at a concentration of 3×10^3 cells/well in RPMI 1640 with 1% fetal bovine serum at 37° C. in 5% carbon dioxide/95% air in the presence of 100 units/ml penicillin, 100 μg/ml streptomycin and allowed to adhere to the plate overnight. Then the cells were incubated in the presence of each concentration of 0 (control), 0.3, 0.6, 1.25, 2.5, 5, 10 ng/ml of FGF2 or VEGF for another 72 hours at 37° C. in a humidified atmosphere of 5% CO2 in air. After treatment, 20 μl of […] 96® Aqueous One Solution Reagent was dropped into each well of plates. After 180 minutes incubation, the optical densities (OD) of these samples were directly measured using SPECTRAMAX® plus (Molecular Device, California) and reference wavelength of 490 nm. The OD of control samples was regarded as 100. Each condition was performed with 4 wells and experiment was repeated twice.

[3] = system: MIAPAC-2 pancreatic cancer cells; assay: FGF2-induced proliferation of MIAPAC-2 pancreatic cancer cells (modified MTS assay); type: cell-based; conditions: MIAPAC-2 pancreatic cancer cells
Description: as §1

[4] = system: ovarian cancer cell line A2870; assay: VEGF-induced proliferation of ovarian cancer cell line A2870; type: cell-based; conditions: data not shown
Description: as §1

[5] = system: pancreatic cancer cell line MIAPAC-2; assay: VEGF-induced proliferation of pancreatic cancer cell line MIAPAC-2; type: cell-based; conditions: data not shown
Description: as §1

[6] = system: FGF2 growth factor gene expression; assay: FGF2 gene expression, AFFYMETRIX human arrays
VEGF gene expression = assay: VEGF gene expression, AFFYMETRIX human arrays

Row | IC50 [1] [µM] | Compound | effect on FGF2-induced cellular proliferation [2] | effect on FGF2-induced cellular proliferation [3] | effect on VEGF-induced cellular proliferation [4] | effect on VEGF-induced cellular proliferation [5] | modulation of FGF2 growth factor gene expression levels [6] | modulation of VEGF gene expression levels (VEGF gene expression)
1 | ~10 | CCN(CC)CCNC(=O)c1c(C)[nH]c(/C=C2\C(=O)Nc3ccc(F)cc32)c1C [sunitinib, reference compound] | – | – | – | – | – | –
2 | – | bevacizumab [reference compound] | did not show significant sensitivity | did not show significant sensitivity | did not show significant sensitivity | did not show significant sensitivity | did not | modulated VEGF gene expression levels
